Values quoted from earlier work in paper PMC9096979 (ACS Omega, 2022).

Target: myotoxin II (Bothrops asper, UniProt P24605)
Sequence (P24605 17-137 limits assumed): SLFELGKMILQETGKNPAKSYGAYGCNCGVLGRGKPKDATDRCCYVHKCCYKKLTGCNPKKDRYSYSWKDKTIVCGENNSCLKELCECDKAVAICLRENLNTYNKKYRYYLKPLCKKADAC

Cc1ccc(C(=O)Nc2ccc(S(=O)(=O)O)c3cc(S(=O)(=O)O)cc(S(=O)(=O)O)c23)cc1NC(=O)c1cccc(NC(=O)Nc2cccc(C(=O)Nc3cc(C(=O)Nc4ccc(S(=O)(=O)O)c5cc(S(=O)(=O)O)cc(S(=O)(=O)O)c45)ccc3C)c2)c1 [suramin]
inhibition of myotoxin II, in words: capable of inhibiting myotoxin II
